Results: patent publication US11702428B2, “Chemical compounds as inhibitors of interleukin-1 activity” (Genentech, Inc., priority 2017, dated 2023)
Entries after “also recorded” stand apart in the source; their conditions may differ. Where two headings read alike, the source gives them in different places.

Assays:
[1] = test system: TNFα; experiment: TNFα levels of LPS and nigericin stimulated cells (counter-screen); assay type: cell-based, human
Experimental: (§1) For ELISA assays cells were seeded into 96-well plates. Post study, supernatants were removed and the levels of mature IL-1β, IL-18 and TNFα (Quantikine ELISA, R&D systems) were measured in cell conditioned media by ELISA according to manufacturer's instructions.
TNFα levels of LPS and nigericin stimulated cells is measured by HTRF assay (Cisbio, Bedford, Mass.). […] Measuring TNFalpha production also serves as a technical counter-screen to eliminate compounds that interfere with the HTRF reagents. Thus compounds that inhibit both IL-1β and TNFα levels are triaged for either being non-selective for inflammasome or interfering with the HTRF readout.

[2] = Human microsomal stability (Eh); assay type: in vitro ADME; conditions: hepatic extraction ratio; 0.5 mg/mL microsomal protein, 1 μM, NADPH; liver blood flow 20.7 mL/min/kg
Experimental: The stock solutions of test article and positive control were prepared at a concentration of 10 mM using DMSO as diluents. All stock solutions were then diluted to working concentrations at 0.25 mM with 70% acetonitrile. The cofactor used in this study was NADPH regenerating system, that was composed of 6.5 mM NADP, 16.5 mM G-6-P, 3 U/mL G-6-P D. The quench reagent was consisted of acetonitrile containing tolbutamide and propanolol (serve as internal standard). Incubation mixtures containing 0.5 mg/mL liver microsomal protein and […] test article/positive control in 100 mM potassium phosphate buffer.
The 0-minute samples were prepared by addition of an 80 μL aliquot of each incubation mixture to 300 μL quench reagent to precipitate proteins. The samples were vortexed, and then a 20 μL aliquot of the NADPH regenerating system was added in. The reaction was initiated by addition of 80 μL of the NADPH regenerating system to 320 μL of each incubation mixture. The final incubation conditions achieved in 400 μL are: 0.5 mg/mL microsomal protein, 1 μM test article/positive control, 1.3 mM NADP, 3.3 mM glucose 6 phosphate, 0.6 U/mL glucose 6 phosphate dehydrogenase. The mixtures were incubated in a 37° C. water bath with gentle shaking. A 100 μL aliquot of each mixture was removed at 10, 30, 90 minutes to a clean 96-well plate which contains 300 μL quench reagent to precipitate proteins, and centrifuged (4000×g, 10 min). 80 μL of supernatant are taken into 96-well assay plates pre-added with 160 μL ultrapure water, and then analyzed by LC-MS/MS. Hepatic extraction ratio (Eh) values were calculated from measured in vitro clearance assuming a human liver blood flow of 20.7 mL/min/kg. Eh values of <0.3 are indicative of compounds with favorable metabolic stability.

[3] = target: T1, NLRP3 inflammasome (Homo sapiens, UniProt Q96P20); experiment: NLRP3 inflammasome activation assay in Kupffer cells (LPS priming, nigericin), IL-1β/IL-18 by ELISA; assay type: cell-based; conditions: KCs; LPS, nigericin; read-out: KC IL-1β IC50
T1 sequence (Q96P20 whole entry): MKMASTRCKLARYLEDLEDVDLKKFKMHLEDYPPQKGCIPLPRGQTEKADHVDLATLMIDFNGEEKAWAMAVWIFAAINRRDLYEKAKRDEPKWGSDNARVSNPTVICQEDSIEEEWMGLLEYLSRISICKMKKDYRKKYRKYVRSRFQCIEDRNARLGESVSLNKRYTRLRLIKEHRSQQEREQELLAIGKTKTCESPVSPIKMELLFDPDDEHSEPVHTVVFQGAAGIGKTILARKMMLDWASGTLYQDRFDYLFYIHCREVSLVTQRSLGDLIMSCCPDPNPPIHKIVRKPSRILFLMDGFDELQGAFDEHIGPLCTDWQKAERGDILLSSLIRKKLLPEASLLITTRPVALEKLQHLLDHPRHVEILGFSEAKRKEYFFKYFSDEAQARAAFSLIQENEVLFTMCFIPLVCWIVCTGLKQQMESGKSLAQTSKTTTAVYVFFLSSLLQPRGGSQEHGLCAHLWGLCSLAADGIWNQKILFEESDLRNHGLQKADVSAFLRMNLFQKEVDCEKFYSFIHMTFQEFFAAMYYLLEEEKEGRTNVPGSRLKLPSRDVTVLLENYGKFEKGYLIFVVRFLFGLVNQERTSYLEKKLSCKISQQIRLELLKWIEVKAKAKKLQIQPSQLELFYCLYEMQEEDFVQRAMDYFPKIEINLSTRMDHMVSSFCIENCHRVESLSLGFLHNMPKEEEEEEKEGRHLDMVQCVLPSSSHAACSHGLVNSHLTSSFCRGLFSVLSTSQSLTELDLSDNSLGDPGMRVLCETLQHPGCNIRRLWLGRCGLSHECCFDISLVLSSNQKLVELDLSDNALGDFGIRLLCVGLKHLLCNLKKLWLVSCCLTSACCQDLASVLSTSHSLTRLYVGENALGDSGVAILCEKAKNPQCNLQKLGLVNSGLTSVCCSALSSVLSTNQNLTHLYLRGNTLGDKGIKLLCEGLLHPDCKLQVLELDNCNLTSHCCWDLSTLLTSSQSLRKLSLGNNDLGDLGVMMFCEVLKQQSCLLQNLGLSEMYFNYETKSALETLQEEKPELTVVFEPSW
Excerpt: (§2) Some of the following assays were used to determine the inhibitory activity of the compounds on the NLRP3 inflammasome using a common inflammasome activation stimuli-nigericin.
Human Kupffer cells (KCs), specialized liver macrophages residing in […], were obtained by gradient isolation from liver specimens harvested post-mortem by Samsara Sciences. Cells were obtained through an IRB approved donor program by Samsara Sciences and all donors tested negative for bacterial and viral infections.
(§3) Cells were then stimulated with 10 uM Nigericin (Sigma Aldrich; InvivoGen) for 1.5 h. Plates were centrifuged at 1,500 rpm for 3 minutes to pellet cells and supernatant was transferred into new plates for subsequent experiments.
as §1

[4] = target: T1, NLRP3 inflammasome; experiment: NLRP3 inflammasome activation assay in PBMCs (LPS priming, nigericin), IL-1β by ELISA; assay type: cell-based; design: Human peripheral blood mononuclear cells (PBMCs); host or cells: primary human PBMCs from healthy donors; conditions: for IC50: LPS, nigericin, read-out: PBMC IL-1β IC50
Experimental: as §2
Human peripheral blood mononuclear cells (PBMCs), consisting of lymphocytes (T, B and NK cells), monocytes and dendritic cells, were freshly isolated from human peripheral blood from healthy donors. Cells were obtained through an IRB approved donor program by iXCells Biotechnologies where all the donors were tested for bacterial and viral infections. Cells were purified from peripheral blood using ficoll gradient centrifugation.
as §3, §1

[5] = test system: LPS and nigericin stimulated cells; experiment: cells; assay type: cell-based; conditions: Homo sapiens, read-out: CTG protective IC50
Experimental: Viability of compound treated cells is measured using CellTiter-Glo® assay (Promega, Madison, Wis.) that measures the ATP content of cells which is proportional to the number of live cells within a well. This is a counter-screen to establish that the reduction of IL-1β levels in LPS and nigericin stimulated and compound treated cells is not due to cytotoxicity, but rather through the inhibition of the inflammasome pathway. Compounds inhibiting NRLP3 inflammasome activation ultimately increase the viability of LPS and nigericin stimulated cells by blocking NLRP3 mediated pyroptosis that would otherwise lead to cell lysis.

[6] = test system: IL-1β; experiment: LPS/ATP challenge model in C57BL/6 mice, IL-1β in peritoneal lavage; assay type: in vivo; conditions: 3.5 hours post dose
Experimental: (§4) The purpose of this study was to determine the effects of Compounds 1 and 2 treatment on cytokine production after LPS/ATP injection in female C57BL/6 mice.
(§5) On Day −1 mice were weighed and assigned to groups per Table 2 (see below) in a balanced manner to achieve similar average weight across the groups at the start of the study.
(§6) All mice received a single dose of treatment or vehicle, at hour minus 1.
(§7) At hour 0, all mice received 1 μg of lipopolysaccharide, ultra pure (LPS, InvivoGen, San Diego, Calif.) in 0.5 ml PBS, intraperitoneally.
(§8) At hour 2 (two hours after LPS injection), all mice were injected intraperitoneally with 0.5 ml of 80 mM ATP disodium salt (Sigma, pH adjusted to 7.2 before injection).
(§9) At hour 2.5 (30 minutes after ATP injection and 3.5 hours after compound dosing), blood from all mice was collected via retro-orbital bleeding into K2 EDTA tubes and plasma was prepared and stored at […]. Samples were shipped to the customer or vendor of customers choosing within 7 days of completing the study.
(§10) Immediately after the collection of blood, each mouse was euthanized, the peritoneal cavity was lavaged with 3 ml of ice-cold PBS containing 25 U/ml heparin sodium salt, cocktail of protease inhibitors (Complete™ ULTRA Tablets, Sigma, Roche), and 10% FBS. Approximately 1 ml of the lavage was collected, spun down to remove cells and the supernatant stored at −80° C.
(§11) Compound powders were stored at 4° C. All compounds were prepared fresh. Compounds were weighed out and first ground with a mortar and pestle, then ground with a small amount of vehicle. The mortar was then repeatedly rinsed with vehicle to remove all material and achieve the correct concentration. The final solution was vortexed to create a homogeneous mixture
(§12) Mouse IL-1β and TNFα concentrations in peritoneal lavage samples were determined using Becton Dickinson (Franklin Lakes, N.J.) CBA analysis kit, according to manufacturer's protocol. A single analysis was performed on each sample.
(§13) Concentrations of cytokines were compared using Student t-test.

[7] = test system: TNFα; experiment: LPS/ATP challenge model in C57BL/6 mice, TNFα in peritoneal lavage; assay type: in vivo; conditions: 3.5 hours post dose
Experimental: as §4, §5, §6, §7, §8, §9, §10, §11, §12, §13

[8] = test system: pro-caspase-1; experiment: Inhibition of Caspase1 activation in bone marrow derived macrophages (Western Blot); assay type: cell-based, mouse; conditions: 10 μM; BMDMs, LPS 100 ng/ml 3 hours, nigericin 10 μM 90 minutes
[9] = LPS and nigericin stimulated cells, CellTiter-Glo

## O=C(Nc1c2c(cc3c1CCC3)CCC2)NS(=O)(=O)c1cnn2c1OC[C@H](O)C2
[1]
  TNFα IC50 (PBMC or KC): No Curve
[2]
  Human Microsomal Stability (Eh): <0.1
[3]
  IC50: < 100 nM
[4]
  IC50: < 100 nM
[5]; [9]
  IC50: < 100 nM

## CS(=O)(=O)NC(=O)Nc1c2c(cc3c1CCC3)CCC2 [Compound 2, N-((1,2,3,5,6,7-hexahydro-s-indacen-4-yl)carbamoyl)methanesulfonamide]
[6]; single oral dose 0.25 mg/kg
  Mean (IL-1β): 392.7 pg/mL
[6]; single oral dose 0.25 mg/kg, 0.25 mg/kg
  % Decrease of IL-1β vs. Vehicle: 71.0%
[6]; single oral dose 1 mg/kg
  Mean (IL-1β): 12.9 pg/mL
[6]; single oral dose 1 mg/kg, 1 mg/kg
  % Decrease of IL-1β vs. Vehicle: 99.0%
[6]; single oral dose 2.5 mg/kg
  Mean (IL-1β): 10.7 pg/mL
[6]; single oral dose 2.5 mg/kg, 2.5 mg/kg
  % Decrease of IL-1β vs. Vehicle: 99.2%
[7]; single oral dose 0.25 mg/kg
  % Decrease of TNFα vs. Vehicle: −12.5%
  Mean (TNFα): 384.7 pg/mL
[7]; single oral dose 1 mg/kg
  % Decrease of TNFα vs. Vehicle: −15.5%
  Mean (TNFα): 394.9 pg/mL
[7]; single oral dose 2.5 mg/kg
  % Decrease of TNFα vs. Vehicle: −218%
  Mean (TNFα): 416.6 pg/mL
[8]
  activation of pro-caspase-1 (p45 and p10 bands, Western Blot): blocked; also recorded: inhibition of activation

## CN[C@H]1COc2c(S(=O)(=O)NC(=O)Nc3c4c(cc5c3CCC5)CCC4)cnn2C1 [drawing 566]
[1]
  TNFα IC50 (PBMC or KC): No Curve
[2]
  Human Microsomal Stability (Eh): <0.1
[5]
  IC50: < 100 nM

## CC1(C)COc2c(S(=O)(=O)NC(=O)Nc3c4c(cc5c3CCC5)CCC4)cnn2C1 [drawing 513]
[1]
  TNFα IC50 (PBMC or KC): No Curve
[2]
  Human Microsomal Stability (Eh): 0.5
[3]
  IC50: < 100 nM
[4]
  IC50: < 100 nM
[5]; [9]
  IC50: < 100 nM

## O=C(Nc1c2c(cc3c1CCC3)CCC2)NS(=O)(=O)c1cnn2c1CCCC2 [Compound 4, N-((1,2,3,5,6,7-hexahydro-s-indacen-4-yl)carbamoyl)-4,5,6,7-tetrahydropyrazolo[1,5-a]pyridine-3-sulfonamide]
[8]
  activation of pro-caspase-1 (p45 and p10 bands, Western Blot): blocked; also recorded: inhibition of activation

## O=C(Nc1c2c(cc3c1CCC3)CCC2)NS(=O)(=O)c1cnn2c1OCCC2
[1]
  TNFα IC50 (PBMC or KC): No Curve
[2]
  Human Microsomal Stability (Eh): 0.3
[5]
  IC50: < 100 nM

## CN(C)[C@H]1COc2c(S(=O)(=O)NC(=O)Nc3c4c(cc5c3CCC5)CCC4)cnn2C1 [drawing 541]
[1]
  TNFα IC50 (PBMC or KC): No Curve
[2]
  Human Microsomal Stability (Eh): 0.2
[5]
  IC50: < 100 nM

## CO[C@@H]1COc2c(S(=O)(=O)NC(=O)Nc3c4c(cc5c3CCC5)CCC4)cnn2C1
[1]
  TNFα IC50 (PBMC or KC): No Curve
[2]
  Human Microsomal Stability (Eh): 0.2
[3]
  IC50: 100 to 1000 nM
[4]
  IC50: 100 to 1000 nM
[5]; [9]
  IC50: 100 to 1000 nM

## CCO[C@H]1COc2c(S(=O)(=O)NC(=O)Nc3c4c(cc5c3CCC5)CCC4)cnn2C1
[1]
  TNFα IC50 (PBMC or KC): No Curve
[2]
  Human Microsomal Stability (Eh): 0.4
[3]
  IC50: < 100 nM
[4]
  IC50: < 100 nM
[5]; [9]
  IC50: < 100 nM

## CO[C@H]1COc2c(S(=O)(=O)NC(=O)Nc3c4c(cc5c3CCC5)CCC4)cnn2C1
[1]
  TNFα IC50 (PBMC or KC): No Curve
[2]
  Human Microsomal Stability (Eh): 0.3
[3]
  IC50: < 100 nM
[4]
  IC50: < 100 nM
[5]; [9]
  IC50: < 100 nM

## CC1CCn2ncc(S(=O)(=O)NC(=O)Nc3c4c(cc5c3CCC5)CCC4)c2O1 (centres unmarked) [drawing 519]
[1]
  TNFα IC50 (PBMC or KC): No Curve
[3]
  IC50: < 100 nM
[4]
  IC50: 100 to 1000 nM

## O=S(=O)(NC(=S)Nc1c2c(cc3c1CCC3)CCC2)c1cnn2c1OCCC2 [Compound 3, N-((1,2,3,5,6,7-hexahydro-s-indacen-4-yl)carbamothioyl)-6,7-dihydro-5H-pyrazolo[5,1-b][1,3]oxazine-3-sulfonamide]
[6]; single oral dose 0.25 mg/kg
  % Decrease of IL-1β vs. Vehicle: 53.0%
  Mean (IL-1β): 781.8 pg/mL
[6]; single oral dose 1 mg/kg
  % Decrease of IL-1β vs. Vehicle: 96.5%
  Mean (IL-1β): 57.7 pg/mL
[6]; single oral dose 2.5 mg/kg
  % Decrease of IL-1β vs. Vehicle: 99.1%
  Mean (IL-1β): 14.6 pg/mL
[4]
  IL-1β production in PBMCs (FIG. 1): inhibition

## O=C(Nc1c2c(cc3c1CCC3)CCC2)NS(=O)(=O)c1cnn2c1OCC(O)C2 (centres unmarked) [drawing 514]
[1]
  TNFα IC50 (PBMC or KC): No Curve
[2]
  Human Microsomal Stability (Eh): 0.1
[3]
  IC50: < 100 nM
[4]
  IC50: < 100 nM
[5]; [9]
  IC50: < 100 nM

## COC1COc2c(S(=O)(=O)NC(=O)Nc3c4c(cc5c3CCC5)CCC4)cnn2C1 (centres unmarked) [drawing 518]
[1]
  TNFα IC50 (PBMC or KC): No Curve
[3]
  IC50: < 100 nM
[4]
  IC50: < 100 nM
[5]; [9]
  IC50: < 100 nM

## C[C@H]1COc2c(S(=O)(=O)NC(=O)Nc3c4c(cc5c3CCC5)CCC4)cnn2C1
[1]
  TNFα IC50 (PBMC or KC): No Curve
[3]
  IC50: < 100 nM
[4]
  IC50: < 100 nM
[5]; [9]
  IC50: < 100 nM
